Measured values published in patent US20220401408A1, “COMPOSITIONS AND METHODS FOR RESCUING RETINAL AND CHOROIDAL STRUCTURE AND FUNCTION” (AUCKLAND UNISERVICES LIMITED, priority 2019, published 2022).

Tests used:
hyperglycemic rats = test: OCT in hyperglycemic rat diabetic retinopathy model (aneurysms, layer thickness); type: in vivo, SD rats (spontaneously hyperglycemic strain)
Description: Hyperglycemic Rat Diabetic Retinopathy Model—A spontaneously hyperglycemic strain of SD rats, which developed clinical signs of diabetic retinopathy within 4 weeks of birth were identified and isolated within the Vernon Jansen Animal Research Unit, Faculty of Medical and Health Sciences at the University of Auckland. The identification of these rats presenting with hyperglycemia and microaneurysms provided an opportunity to treat a complex, chronic disease model and assess the treatment effect based upon objective, measurable endpoints, despite lacking precise information on the etiology of the disease. Inbreeding was carried out over three generations and eyes were screened for abnormalities between 4-8 weeks of age. Additional information about these rats is presented as supplementary information. Glucose levels were tested in non-fasting rats (Lee J J, Yi H Y, Yang J W, Shin J S, Kwon J H, Kim C W. Characterization of streptozotocin-induced diabetic rats and pharmacodynamics of insulin formulations. Biosci Biotechnol Biochem. 2003; 67:2396-401) using a Freestyle Optium Glucometer (Abbott Laboratories Ltd., UK) and Freestyle Optium glucose strips.
Ten rats per group were the selected (10 normal SD and 10 hyperglycemic) grown to 5 weeks of age and assessed using OCT and ERG. The hyperglycemic rat group was then split into two subgroups of five, with one subgroup fed tonabersat once daily for 14 days from weeks 5 to 7 at a low dose level of 0.28 mg/kg in 0.5 g peanut butter, with the other subgroup fed 0.5 g peanut butter only. All animals were assessed again using ERG and OCT at 8 weeks of age before euthanizing animals and removing the eyes for immunohistochemical analysis. Data groups were randomized prior to the statistical comparison. In summary, normal SD and hyperglycemic rats were analyzed with OCT and ERG at 5 weeks of age; the hyperglycemic rats were then split into two groups and fed the vehicle or tonabersat for 14 days during weeks 6 and 7 of age. At week 8, animals were again assessed with ERG and OCT and tissues collected for immunohistochemical analysis. Four tonabersat-treated rats were, however, left until 3 months of age before final ERG and OCT and tissue collection.
Evans Blue Dye Assessment of Vessel Leak—To investigate whether micro- and macro-aneurysms in the hyperglycemic rat retinas (observed using OCT) reflect sites of vessel leak, rats were perfused at the age of 3 months with Evans Blue dye as previously described. Cai S, Yang Q, Hou M, Han Q, Zhang H, Wang J, et al. Alpha-Melanocyte-Stimulating Hormone Protects Early Diabetic Retina from Blood-Retinal Barrier Breakdown and Vascular Leakage via MC4R. Cell Physiol Biochem. 2018; 45:505-22. Briefly, Evans Blue dye (30 mg/ml; Sigma-Aldrich, USA) was dissolved in normal saline and filtered. The dye was delivered as an injection into the rat-tail vein of normal SD and hyperglycemic rats at 45 mg/kg and allowed to circulate for 2 hours. Eyes were enucleated while rats were under deep anesthesia and an intracardial injection of 3M KCl was then administered rapidly to euthanize the animals. The posterior segment cups were fixed whole in 4% paraformaldehyde for 30 min and the retinas removed and laid flat. Evans Blue was stimulated at 559 nm wavelength and visualized by its red fluorescence emission using Olympus FluoView FV1000 (Olympus Corporation, Tokyo, Japan). […]

[1] = Estimated circulating concentration after oral tonabersat in peanut butter; type: in vivo, Sprague Dawley (SD) rats
Protocol: Tonabersat treatment of light damaged rats—LD rats were randomly assigned to low, middle or high dose of tonabersat (n=7 per group). The mixture of tonabersat in peanut butter was prepared fresh for each experiment. Three oral tonabersat doses were tested (n=7 per group) with follow up to 2 weeks post-injury, and the highest dose group then split with three animals taken for histological analysis, and four animals followed to 3 months post-injury. There was a ten-animal vehicle only control group. The group of rats that were kept for 3 months were maintained in separate cages for drug or vehicle-treated animals, but were kept under the same light conditions. Tonabersat was fed to animals in peanut butter at 0.26 mg/kg (on average 0.08 mg delivered, estimated circulating concentration 10 μM), 0.8 mg/kg (average of 0.24 mg delivered; 30 μM circulating) or 2.4 mg/kg (on average 0.72 mg delivered; 90 μM circulating) following consideration of previous unsuccessful human trial dosing levels. Silberstein S D. Tonabersat, a novel gap-junction modulator for the prevention of migraine. Cephalalgia. 2009; 29 Suppl 2:28-35; Dahlof C G, Hauge A W, Olesen J. Efficacy and safety of tonabersat, a gap-junction modulator, in the acute treatment of migraine: a double-blind, parallel-group, randomized study. Cephalalgia. 2009; 29 Suppl 2:7-16; Goadsby P J, Ferrari M D, Csanyi A, Olesen J, Mills J G, Tonabersat TONSG. Randomized, double-blind, placebo-controlled, proof-of-concept study of the cortical spreading depression inhibiting agent tonabersat in migraine prophylaxis. Cephalalgia. 2009; 29:742-50. […] The treatment groups were known to the investigator at the time of treatment, but groups were then randomized prior to statistical comparison which meant that analysis was conducted without the knowledge of which were treated or control animals. […] Two weeks later animals were again assessed with ERG and OCT and tissue collection proceeded immediately after, except for four rats in the high dose group that were under experimentation for 3 more months.

[2] = 0.28 mg/kg once daily 14 days, week 8

Structure (SMILES): CC(=O)c1ccc2c(c1)[C@H](NC(=O)c1ccc(F)c(Cl)c1)[C@H](O)C(C)(C)O2 [tonabersat, N-[(3S,4S)-6-acetyl-3-hydroxy-2,2-dimethyl-3,4-dihydrochromen-4-yl]-3-chloro-4-fluorobenzamide]
- number and size of microaneurysms after treatment (hyperglycemic rats; [2]): differences
- retinal layer thickness (INL or ONL) or thickness of the choroid, treated vs untreated (hyperglycemic rats; [2]): no significant difference
- hyperreflective spot on OCT after treatment (hyperglycemic rats; 0.28 mg/kg once daily for 14 days, 8 weeks): barely visible
- clinical signs, including the presence of aneurysms (hyperglycemic rats; DR model, daily treatment for two weeks): reduced
- micro- and macro-aneurysms compared to placebo controls (hyperglycemic rats; oral, DR model): regression
- estimated circulating concentration ([1]; 0.26 mg/kg oral in peanut butter (on average 0.08 mg delivered)): 10 µM
- estimated circulating concentration ([1]; 0.8 mg/kg oral in peanut butter (average 0.24 mg delivered)): 30 µM
- estimated circulating concentration ([1]; 2.4 mg/kg oral in peanut butter (on average 0.72 mg delivered)): 90 µM
